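Test compounds were applied to cells in 96-well plates for 48 hours at 5 doses. GI50 is the concentration that inhibits growth by half. TGI denotes the concentration required for complete inhibition of growth.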
Experiments:
Assay in all cases: DTP human tumour cell line panel, 48 h
SF-295 CNS = system: SF-295 CNS
SR leukemia = system: SR leukemia
NCI-H23 lung = system: NCI-H23 lung
NCI-H226 lung = system: NCI-H226 lung
HCC-2998 colon = system: HCC-2998 colon
A498 renal = system: A498 renal
HT29 colon = system: HT29 colon
SW-620 colon = system: SW-620 colon
HCT-15 colon = system: HCT-15 colon
HOP-92 NSCLC = system: HOP-92 NSCLC

SMILES	GI50 (SF-295 CNS)	TGI (SF-295 CNS)	GI50 (SR leukemia)	TGI (SR leukemia)	GI50 (NCI-H23 lung)	TGI (NCI-H23 lung)	GI50 (NCI-H226 lung)	TGI (NCI-H226 lung)	GI50 (HCC-2998 colon)	TGI (HCC-2998 colon)	GI50 (A498 renal)	TGI (A498 renal)	GI50 (HT29 colon)	TGI (HT29 colon)	GI50 (SW-620 colon)	TGI (SW-620 colon)	GI50 (HCT-15 colon)	TGI (HCT-15 colon)	TGI (HOP-92 NSCLC)	GI50 (HOP-92 NSCLC)
O=[N+]([O-])c1cc2c(ccc3occc32)o1	2.04 µM	5.75 µM	2 µM	9.64 µM	2.69 µM	15.6 µM	4.04 µM	31.7 µM	1.88 µM	3.88 µM	2.21 µM	4.58 µM	2.45 µM	18.8 µM	3.17 µM	> 100 µM	1.96 µM	5.97 µM	–	–
COC(=O)C1=C(c2ccc(Cl)cc2)C(O)N=C(NN)N1 (stereo unspecified)	–	> 100 µM	–	> 100 µM	–	> 100 µM	–	> 100 µM	–	> 100 µM	–	–	–	> 100 µM	–	> 100 µM	–	> 100 µM	> 100 µM	–
CC(=O)O/N=C/c1cc2c(cc1Br)OCO2	–	> 349 µM	–	> 349 µM	–	> 349 µM	–	–	–	> 349 µM	–	–	–	> 349 µM	–	> 349 µM	–	> 349 µM	> 349 µM	–
CC1=NN(C(=O)c2nn(-c3ccc(Cl)cc3)cc2O)C(=O)C1	0.285 µM	–	0.419 µM	7.97 µM	3.03 µM	> 100 µM	3.17 µM	> 67.5 µM	3.37 µM	> 100 µM	2.92 µM	> 82 µM	4.44 µM	> 100 µM	4.55 µM	> 100 µM	0.845 µM	> 100 µM	–	–
COc1cc2c(cc1OCCCCCn1c3ccccc3c3ccccc31)N=C[C@@H]1CCCN1C2=O	2.15 µM	6.55 µM	15.4 µM	> 100 µM	2.69 µM	7.04 µM	2.49 µM	8.48 µM	1.71 µM	3.18 µM	1.77 µM	3.69 µM	2.08 µM	5.29 µM	–	–	1.67 µM	3.48 µM	–	–
O=C1NN=CN2C(=O)CCC12 (stereo unspecified)	–	> 100 µM	–	> 100 µM	–	> 100 µM	–	–	–	> 100 µM	–	> 100 µM	–	–	–	> 100 µM	–	> 100 µM	> 100 µM	–
CC(C)=CCc1cc(C2COc3cc4c(c(O)c3C2=O)C=CC(C)(C)O4)c(O)cc1O (stereo unspecified)	–	43.5 µM	–	24.1 µM	–	32.6 µM	–	–	–	32.7 µM	–	33.2 µM	–	31.6 µM	–	57.3 µM	–	26.9 µM	33.1 µM	–
NC(=O)N/N=C(\CCC(=O)N(Cc1ccccc1)Cc1ccccc1)CC(=O)c1ccc(F)cc1	–	> 100 µM	–	> 100 µM	–	> 100 µM	–	> 100 µM	–	> 100 µM	–	–	–	> 100 µM	–	> 100 µM	–	> 100 µM	–	–
N#CC(C(=O)CCC(=O)Nc1ccc(Cl)c(Cl)c1)c1ccc(Cl)cc1 (stereo unspecified)	–	> 100 µM	–	–	–	> 100 µM	–	> 100 µM	–	> 100 µM	–	> 100 µM	–	> 100 µM	–	> 100 µM	–	> 100 µM	> 100 µM	–
CCCCCCCCCCCCCCCCCc1nnc(N)o1	–	> 100 µM	–	> 100 µM	–	> 100 µM	–	> 100 µM	–	> 100 µM	–	–	–	> 100 µM	–	> 100 µM	–	> 100 µM	> 100 µM	–
COc1ccc2c(c1OC)C(=O)O[C@@H]2[C@H]1c2c(c(Br)c3c(c2OC)OCO3)CCN1C	10.8 µM	47.4 µM	0.918 µM	> 100 µM	> 100 µM	> 100 µM	44.1 µM	> 100 µM	–	–	27.6 µM	> 100 µM	47 µM	> 100 µM	5.37 µM	> 100 µM	4.67 µM	> 100 µM	> 100 µM	21.7 µM
O=C1c2ccn(CCCCN(CCO)CCO)c2C(=O)c2c1c(O)c1ccccc1c2O	10.8 µM	42 µM	–	–	1.66 µM	3.02 µM	64 µM	> 100 µM	3.55 µM	14.2 µM	13.4 µM	39.7 µM	3.39 µM	> 100 µM	3.12 µM	14.7 µM	0.948 µM	2.14 µM	50.8 µM	17.7 µM
NS(=O)(=O)c1ccc(NC(=O)c2cccc3c(Nc4ccc(S(N)(=O)=O)cc4)c4ccccc4nc23)cc1	–	> 100 µM	–	–	–	> 100 µM	–	–	–	–	–	> 100 µM	–	68.4 µM	–	> 100 µM	–	> 100 µM	> 100 µM	–
CCOC(=O)c1cn(CC)c2cc3c(cc2c1=O)SCS3	–	> 100 µM	–	–	–	> 100 µM	–	–	–	> 100 µM	–	–	–	> 100 µM	–	> 100 µM	–	> 100 µM	> 100 µM	–
Cc1cn(Cc2ccccc2CCl)c(=O)n(Cc2ccccc2CCl)c1=O	3.52 µM	16.7 µM	0.661 µM	3.25 µM	2.19 µM	5.43 µM	–	–	1.5 µM	2.95 µM	10.6 µM	27.4 µM	2.04 µM	5.69 µM	2.14 µM	6.03 µM	1.96 µM	4.43 µM	3.62 µM	1.86 µM
COc1ccc(/C(C#N)=C(/N)SCc2ccccc2Cl)cc1	–	31.5 µM	–	> 100 µM	–	34.2 µM	–	33.3 µM	–	31.7 µM	–	42.3 µM	–	33.3 µM	–	29.7 µM	–	–	34.5 µM	–
OC1c2ccccc2C2C(O)c3ccccc3C12 (stereo unspecified)	–	> 100 µM	–	–	–	> 100 µM	–	–	–	> 100 µM	–	–	–	> 100 µM	–	> 100 µM	–	> 100 µM	> 100 µM	–
O=C(CC(=O)C1CCOC1=O)C(=O)Nc1ccc(Cl)cc1 (stereo unspecified)	–	> 100 µM	–	–	–	> 100 µM	–	> 100 µM	–	> 100 µM	–	> 100 µM	–	> 100 µM	–	> 100 µM	–	> 100 µM	> 100 µM	–
Cc1cc(C)nc(NS(=O)(=O)c2ccc(NC(=O)c3cccc4c(N)c5ccccc5nc34)cc2)n1	–	> 100 µM	–	–	–	> 100 µM	–	> 100 µM	–	> 100 µM	–	> 100 µM	–	–	–	> 100 µM	–	> 100 µM	–	–

From PubChem BioAssay (NCI)
